Biological target: T1, horseradish peroxidase (HRP) (Armoracia rusticana, UniProt P00433)
T1 construct: gene PRXC1A; free enzyme for this row
T1 sequence (P00433 31-338): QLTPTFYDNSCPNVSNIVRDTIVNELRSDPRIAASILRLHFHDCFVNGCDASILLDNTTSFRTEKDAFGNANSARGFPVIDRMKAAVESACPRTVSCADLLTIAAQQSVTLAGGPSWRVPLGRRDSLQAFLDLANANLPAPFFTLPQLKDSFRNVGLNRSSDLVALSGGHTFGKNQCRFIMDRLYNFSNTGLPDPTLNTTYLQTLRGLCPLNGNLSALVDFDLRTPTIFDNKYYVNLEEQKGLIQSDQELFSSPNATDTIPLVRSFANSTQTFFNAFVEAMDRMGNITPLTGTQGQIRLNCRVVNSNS
Experiment: TMB oxidation, absorbance at […] nm after acid stop
Assay type: biochemical
Conditions: free HRP; co-substrate H2O2; oxidation also seen with ZIF-8-encapsulated HRP

## Cc1cc(-c2cc(C)c(N)c(C)c2)cc(C)c1N [TMB, 3,3′,5,5′-Tetramethylbenzidine]
  TMB oxidation, absorbance at 450 nm after acid stop: HRP, HRP@ZIF-8, HRP&Au@ZIF-8 and HRP&Au@ZIF-8/cDNA were all able to catalyze TMB oxidation
